This passage reports Ki and GI50 results from patent US12692249B2, “WDR5 inhibitors and modulators” (Vanderbilt University, priority 2019, dated 2026).

A value given as a limit tells only on which side of the number the result lay.

One test deals with WDR5 (Homo sapiens, UniProt P61964). Kind of test: TR-FRET competition binding assay, displacement of 10mer-Thr-FAM MLL peptide probe from His-tagged WDR5. To be noted: WDR5-His tag (residues 24-334) 2 nM; 10mer-Thr-FAM 150 nM; 60 min, room temperature; read-out: Ki for Inhibition of WDR5 by TR-FRET assay. A general note: In TR-FRET formats the signal depends on donor and acceptor labels being close together.

Test [1] deals with MV4:11 human cancer cell lines. The experiment in a line: Cellular viability / anti-proliferative assay, CellTiter-Glo, 5 day protocol. It is filed as cell-based. Particulars: Homo sapiens, MV4-11, 120 h, MV4:11 cells; 5 day incubation; CellTiter-Glo; mean of at least two replicates; read-out: GI50 on cellular proliferation of MV4:11 human cancer cell lines. A digest of the protocol: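 MV-4-11 cells in IMDM with 10% FBS, 200 cells/well, exposed 5 days to 22 two-fold dilutions from 30 μM, final DMSO 0.3%. Viability read by CellTiter-Glo luminescence; GI50 from sigmoidal dose-response fit, mean of at least two replicates.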
For orientation: ATP-based viability assays read luminescence as a measure of living cells.

What is called Ki is a dissociation constant, usually derived from enzyme kinetics or from competition with a known ligand. Regarding `CCc1cc(C(=O)NC2CCOCC2)c2nccc(N3CCc4c(cc(Cn5ccnc5)cc4-c4cn(C)nc4C(F)(F)F)C3=O)c2c1` [Example 171, 4-(7-((1H-Imidazol-1-yl)methyl)-5-(1-methyl-3-(trifluoromethyl)-1H-pyrazol-4-yl)-1-oxo-3,4-dihydroisoquinolin-2(1H)-yl)-6-ethyl-N-(tetrahydro-2H-pyran-4-yl)quinoline-8-carboxamide], on WDR5, the Ki is less than 0.02 nM. Besides, the GI50 in test [1] was less than 20 nM.

As to `CCc1cc(C(=O)NC2CC2)c2nccc(N3CCc4c(cc(Cn5ccnc5)cc4-c4cn(C)nc4C(F)(F)F)C3=O)c2c1` [Example 172, 4-(7-((1H-Imidazol-1-yl)methyl)-5-(1-methyl-3-(trifluoromethyl)-1H-pyrazol-4-yl)-1-oxo-3,4-dihydroisoquinolin-2(1H)-yl)-N-cyclopropyl-6-ethylquinoline-8-carboxamide], the Ki at WDR5 was less than 0.02 nM. For the same compound, in test [1], the GI50 is less than 20 nM.

On to `CCc1cc(C(=O)NCc2cnccn2)c2nccc(N3CCc4c(cc(Cn5ccnc5)cc4-c4cn(C)nc4C(F)(F)F)C3=O)c2c1` [Example 173, 4-(7-((1H-Imidazol-1-yl)methyl)-5-(1-methyl-3-(trifluoromethyl)-1H-pyrazol-4-yl)-1-oxo-3,4-dihydroisoquinolin-2(1H)-yl)-6-ethyl-N-(pyrazin-2-ylmethyl)quinoline-8-carboxamide], for which the Ki at WDR5 is less than 0.02 nM. Also, the GI50 in test [1] is less than 20 nM.

Turning to `COc1cc(C#N)c2nc(C)cc(N3CCc4c(cc(Cn5ccnc5)cc4-c4cn(C)nc4C(F)(F)F)C3=O)c2c1` [Example 175, 4-(7-((1H-Imidazol-1-yl)methyl)-5-(1-methyl-3-(trifluoromethyl)-1H-pyrazol-4-yl)-1-oxo-3,4-dihydroisoquinolin-2(1H)-yl)-6-methoxy-2-methylquinoline-8-carbonitrile], the Ki at WDR5 was less than 0.02 nM. In addition, the GI50 in test [1] is less than 20 nM.

As to `CCc1cc(OC(F)(F)F)c2nccc(N3CCc4c(cc(Cn5ccnc5)cc4-c4cn(C)nc4C(F)(F)F)C3=O)c2c1` [Example 176, 7-((1H-imidazol-1-yl)methyl)-2-(6-ethyl-8-(trifluoromethoxy)quinolin-4-yl)-5-(1-methyl-3-(trifluoromethyl)-1H-pyrazol-4-yl)-3,4-dihydroisoquinolin-1(2H)-one], the Ki at WDR5 is less than 0.02 nM. Moreover, the GI50 in test [1] was found to be 33 nM.

Consider `CCc1cc(COC2CNC2)c2nccc(N3CCc4c(cc(Cn5ccnc5)cc4-c4cn(C)nc4C(F)(F)F)C3=O)c2c1` [Example 179, 7-((1H-Imidazol-1-yl)methyl)-2-(8-((azetidin-3-yloxy)methyl)-6-ethylquinolin-4-yl)-5-(1-methyl-3-(trifluoromethyl)-1H-pyrazol-4-yl)-3,4-dihydroisoquinolin-1(2H)-one], for which the Ki on WDR5 is less than 0.02 nM. Further, the GI50 in test [1] was determined as 33 nM.

Take `COc1cc(C(=O)NS(C)(=O)=O)c2nc(C)cc(N3CCc4c(cc(Cn5ccnc5)cc4-c4cn(C)nc4C(F)(F)F)C3=O)c2c1` [Example 181, 4-(7-((1H-Imidazol-1-yl)methyl)-5-(1-methyl-3-(trifluoromethyl)-1H-pyrazol-4-yl)-1-oxo-3,4-dihydroisoquinolin-2(1H)-yl)-6-methoxy-2-methyl-N-(methylsulfonyl)quinoline-8-carboxamide]: the Ki on WDR5 amounted to 0.04 nM. Further, the GI50 in test [1] is 856 nM.

Take `CCc1cc(COC2CCOCC2)c2nccc(N3CCc4c(cc(Cn5ccnc5)cc4-c4cn(C)nc4C(F)(F)F)C3=O)c2c1` [Example 182, 7-((1H-Imidazol-1-yl)methyl)-2-(6-ethyl-8-(((tetrahydro-2H-pyran-4-yl)oxy)methyl)quinolin-4-yl)-5-(1-methyl-3-(trifluoromethyl)-1H-pyrazol-4-yl)-3,4-dihydroisoquinolin-1(2H)-one]: the Ki on WDR5 was less than 0.02 nM. The GI50 in test [1] is less than 20 nM.

On to `CNC(=O)c1cc(OC)cc2c(N3CCc4c(cc(Cn5ccnc5)cc4-c4cn(C)nc4C(F)(F)F)C3=O)cc(C)nc12` [Example 183, 4-(7-((1H-Imidazol-1-yl)methyl)-5-(1-methyl-3-(trifluoromethyl)-1H-pyrazol-4-yl)-1-oxo-3,4-dihydroisoquinolin-2(1H)-yl)-6-methoxy-N,2-dimethylquinoline-8-carboxamide], for which, at WDR5, the Ki is less than 0.02 nM. Moreover, in test [1], the GI50 is less than 20 nM.

Regarding `COc1cc(C(=N)NO)c2nc(C)cc(N3CCc4c(cc(Cn5ccnc5)cc4-c4cn(C)nc4C(F)(F)F)C3=O)c2c1` [Example 184, 4-(7-((1H-Imidazol-1-yl)methyl)-5-(1-methyl-3-(trifluoromethyl)-1H-pyrazol-4-yl)-1-oxo-3,4-dihydroisoquinolin-2(1H)-yl)-N-hydroxy-6-methoxy-2-methylquinoline-8-carboximidamide], on WDR5, the Ki is less than 0.02 nM. Besides, the GI50 in test [1] is 21 nM.

Take `CCc1cc(C(=O)NC2CCN(C)CC2)c2nccc(N3CCc4c(cc(Cn5ccnc5)cc4-c4cn(C)nc4C(F)(F)F)C3=O)c2c1` [Example 186, 4-(7-((1H-Imidazol-1-yl)methyl)-5-(1-methyl-3-(trifluoromethyl)-1H-pyrazol-4-yl)-1-oxo-3,4-dihydroisoquinolin-2(1H)-yl)-6-ethyl-N-(1-methylpiperidin-4-yl)quinoline-8-carboxamide]: at WDR5, the Ki is less than 0.02 nM. For the same compound, the GI50 in test [1] was less than 20 nM.

In the case of `CCc1cc(COc2ccncc2)c2nccc(N3CCc4c(cc(Cn5ccnc5)cc4-c4cn(C)nc4C(F)(F)F)C3=O)c2c1` [Example 187, 7-((1H-Imidazol-1-yl)methyl)-2-(6-ethyl-8-((pyridin-4-yloxy)methyl)quinolin-4-yl)-5-(1-methyl-3-(trifluoromethyl)-1H-pyrazol-4-yl)-3,4-dihydroisoquinolin-1(2H)-one], the Ki at WDR5 is less than 0.02 nM. Also, the GI50 in test [1] was 43 nM.

Turning to `CCc1cc(COC)c2nccc(N3CCc4c(cc(Cn5ccnc5)cc4-c4cn(C)nc4C(F)(F)F)C3=O)c2c1` [Example 188, 7-((1H-Imidazol-1-yl)methyl)-2-(6-ethyl-8-(methoxymethyl)quinolin-4-yl)-5-(1-methyl-3-(trifluoromethyl)-1H-pyrazol-4-yl)-3,4-dihydroisoquinolin-1(2H)-one], on WDR5, the Ki was less than 0.02 nM. Moreover, in test [1], the GI50 is less than 20 nM.

For the compound `COc1cc(C(=O)NC2CCN(C)CC2)c2nc(C)cc(N3CCc4c(cc(Cn5ccnc5)cc4-c4cn(C)nc4C(F)(F)F)C3=O)c2c1` [Example 189, 4-(7-((1H-Imidazol-1-yl)methyl)-5-(1-methyl-3-(trifluoromethyl)-1H-pyrazol-4-yl)-1-oxo-3,4-dihydroisoquinolin-2(1H)-yl)-6-methoxy-2-methyl-N-(1-methylpiperidin-4-yl)quinoline-8-carboxamide], on WDR5, the Ki is less than 0.02 nM. In test [1], the GI50 was less than 20 nM.

With `CCc1cc(C(=O)NCCOC)c2nc(C)cc(N3CCc4c(cc(Cn5ccnc5)cc4-c4cn(C)nc4C(F)(F)F)C3=O)c2c1` [Example 190, 4-(7-((1H-Imidazol-1-yl)methyl)-5-(1-methyl-3-(trifluoromethyl)-1H-pyrazol-4-yl)-1-oxo-3,4-dihydroisoquinolin-2(1H)-yl)-6-ethyl-N-(2-methoxyethyl)-2-methylquinoline-8-carboxamide], the Ki at WDR5 is less than 0.02 nM. Moreover, the GI50 in test [1] was less than 20 nM.

With `CCc1cc(COC2COC2)c2nccc(N3CCc4c(cc(Cn5ccnc5)cc4-c4cn(C)nc4C(F)(F)F)C3=O)c2c1` [Example 191, 7-((1H-Imidazol-1-yl)methyl)-2-(6-ethyl-8-((oxetan-3-yloxy)methyl)quinolin-4-yl)-5-(1-methyl-3-(trifluoromethyl)-1H-pyrazol-4-yl)-3,4-dihydroisoquinolin-1(2H)-one], the Ki at WDR5 is less than 0.02 nM. Besides, the GI50 in test [1] is less than 20 nM.

On to `CCc1cc(C(=O)NCCN(C)C)c2nc(C)cc(N3CCc4c(cc(Cn5ccnc5)cc4-c4cn(C)nc4C(F)(F)F)C3=O)c2c1` [Example 194, 4-(7-((1H-Imidazol-1-yl)methyl)-5-(1-methyl-3-(trifluoromethyl)-1H-pyrazol-4-yl)-1-oxo-3,4-dihydroisoquinolin-2(1H)-yl)-N-(2-(dimethylamino)ethyl)-6-ethyl-2-methylquinoline-8-carboxamide], for which, at WDR5, the Ki is less than 0.02 nM. Moreover, the GI50 in test [1] is less than 20 nM.

In the case of `COc1cc(N2CCC(OC)CC2)c2nc(C)cc(N3CCc4c(cc(Cn5ccnc5)cc4-c4cn(C)nc4C(F)(F)F)C3=O)c2c1` [Example 195, 7-((1H-Imidazol-1-yl)methyl)-2-(6-methoxy-8-(4-methoxypiperidin-1-yl)-2-methylquinolin-4-yl)-5-(1-methyl-3-(trifluoromethyl)-1H-pyrazol-4-yl)-3,4-dihydroisoquinolin-1(2H)-one], the Ki at WDR5 is less than 0.02 nM. Also, in test [1], the GI50 was less than 20 nM.

Take `CCc1cc(N2C[C@H]3CN(C)C[C@H]3C2)c2nc(C)cc(N3CCc4c(cc(Cn5ccnc5)cc4-c4cn(C)nc4C(F)(F)F)C3=O)c2c1` [Example 197, 7-((1H-Imidazol-1-yl)methyl)-2-(6-ethyl-2-methyl-8-((3aR,6aS)-5-methylhexahydropyrrolo[3,4-c]pyrrol-2(1H)-yl)quinolin-4-yl)-5-(1-methyl-3-(trifluoromethyl)-1H-pyrazol-4-yl)-3,4-dihydroisoquinolin-1(2H)-one]: the inhibition constant Ki at WDR5 came to 0.02 nM. Also, the GI50 in test [1] is less than 20 nM.

Regarding `COc1cc(C(=O)Nc2ncco2)c2nc(C)cc(N3CCc4c(cc(Cn5ccnc5)cc4-c4cn(C)nc4C(F)(F)F)C3=O)c2c1` [Example 200, 4-(7-((1H-Imidazol-1-yl)methyl)-5-(1-methyl-3-(trifluoromethyl)-1H-pyrazol-4-yl)-1-oxo-3,4-dihydroisoquinolin-2(1H)-yl)-6-methoxy-2-methyl-N-(oxazol-2-yl)quinoline-8-carboxamide], the Ki at WDR5 was less than 0.02 nM. For the same compound, the GI50 in test [1] was 28 nM.
